We go through two compounds from ChEMBL document CHEMBL5252556, “Fuligopyrones from the Fruiting Bodies of Myxomycete Fuligo septica Offer Short-Term Protection from Abiotic Stress Induced by UV Radiation” (J Nat Prod, 2023).

By MIC is commonly meant the lowest concentration that inhibits growth of the organism. A lower MIC goes with a more susceptible organism. The term IC50 denotes the concentration needed to halve the response being measured. High values mean weaker potency, low ones greater potency.

For data set [1], the system named is Bacillus subtilis. Nature of the data set: Antibacterial activity against Bacillus subtilis ATCC 6633 measured after 24 hrs. The class given is functional.
Data set [2] relates to Staphylococcus aureus. The data set is described as follows: Antibacterial activity against Staphylococcus aureus ATCC 25923 measured after 24 hrs. The class given is functional.
The test system of data set [3] is Candida albicans. The data set is described as follows: Antifungal activity against Candida albicans ATCC 10231 measured after 24 hrs. In kind it is functional.
For data set [4], the system named is Saccharomyces cerevisiae. The data set is described as follows: Antifungal activity against Saccharomyces cerevisiae ATCC 9763 measured after 24 hrs. The class given is functional.
A short description of data set [5]: Cytotoxicity against mouse NS-1 cells measured after 72 hrs. In kind it is toxicity, cell-based.
Data set [6] in a line: Cytotoxicity against […] NFF measured after 72 hrs. The settings on record: NFF cells. The class given is toxicity, cell-based.
Data set [7] deals with Tritrichomonas foetus. Nature of the data set: Anti-protozoal Tritrichomonas foetus KV-1 measured after 24 hrs. In kind it is functional.
Data set [8] relates to Eragrostis tef. Nature of the data set: Herbicidal activity against Eragrostis tef seed measured after 24 hrs. To be noted: in Eragrostis tef.

Bounds are passed on as bounds.

In the case of `O=C(/C=C/C=C/c1ccc(O)cc1)NCCc1cc(O)c(Cl)c(=O)o1`, the MIC in data set [1] is greater than 100 µg/mL; in data set [2] it was greater than 100 µg/mL; in data set [3] it was greater than 200 µg/mL; in data set [4], greater than 200 µg/mL; in data set [8] it was greater than 100 µg/mL. Besides, the concentration for half-maximal inhibition (IC50) at 72 h in data set [5] and in data set [6] was greater than 200 µM in each case. Also, the LD99 in data set [7] is greater than 100 µg/mL.
Turning to `O=C(/C=C/C=C/c1ccc(O)cc1)NCCc1cc(O)cc(=O)o1`, the MIC was greater than 100 µg/mL in data set [1]; greater than 100 µg/mL in data set [2]; greater than 200 µg/mL in data set [3]; greater than 200 µg/mL in data set [4]; greater than 100 µg/mL in data set [8]. The IC50 at 72 h in data set [5] and in data set [6] was greater than 200 µM in each case. In addition, the LD99 in data set [7] is greater than 100 µg/mL.
